Test results: patent US20200131144A1, “AMINE OR (THIO)AMIDE CONTAINING LXR MODULATORS” (Phenex-FXR GmbH, priority 2017, published 2020)
Read-outs that look alike come from different tables or passages of the source. Blank lines part the entries; values can stand above or below the molecule they belong to.

Key:
[1] = molecular target: T1, GST-LXRβ ligand-binding domain (Homo sapiens, UniProt P55055, INS174Q); assay: TR-FRETβ activity assay (NCoA3 coactivator peptide recruitment); assay type: biochemical; settings: 1 μM 24(S)-25-epoxycholesterol as prestimulating agonist; inverse agonist unless *
T1 construct: amino acids 156-461; NP009052; made in house; host or cells: E. coli
T1 sequence (P55055 with tags, fused parts or gaps INS174Q limits assumed): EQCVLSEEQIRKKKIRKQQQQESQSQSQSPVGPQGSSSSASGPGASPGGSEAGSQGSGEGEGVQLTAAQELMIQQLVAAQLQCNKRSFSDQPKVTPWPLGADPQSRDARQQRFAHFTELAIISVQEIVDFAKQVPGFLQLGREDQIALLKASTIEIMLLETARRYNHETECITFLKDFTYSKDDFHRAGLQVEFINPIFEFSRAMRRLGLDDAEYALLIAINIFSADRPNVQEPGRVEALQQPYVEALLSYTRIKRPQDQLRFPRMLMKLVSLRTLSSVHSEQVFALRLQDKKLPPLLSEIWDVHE
How it was run: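 E. coli-expressed GST-LXRβ LBD (aa 156-461, 76 nM) with biotinylated NCoA3 peptide (400 nM), anti-GST-Tb cryptate donor and streptavidin-XL665 acceptor in 240 mM KCl, BSA, 0.002% Triton X-100. Equilibrated 1 h at 4° C; TR-FRET read at 615/665 nm, triplicates.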

[2] = Pharmacokinetics in mice after single oral dosing, blood and liver exposure by LC-MS; assay type: in vivo, mice (C57/bl6/J)
How it was run: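 Male C57BL/6J mice fasted ≥12 h, given a single oral dose of 20 mg/kg (n=3 per group). Sacrifice at 4, 12 or 24 h post-dose; liver and blood levels quantified by LC-MS.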

[3] = molecular target: T2, LXRβ ligand-binding domain (LBD) (Homo sapiens, UniProt P55055, INS174Q); assay: LXR Gal4 reporter transient transfection assay, mammalian two-hybrid, LBD-M2H Gal4β; assay type: cell-based; settings: HEK293 cells; inverse agonist unless *
T2 construct: or LXR (amino acids 156-461); expressed in transfected cells; host or cells: HEK293
T2 sequence (P55055 with tags, fused parts or gaps INS174Q limits assumed): T1 sequence (P55055 with tags, fused parts or gaps INS174Q limits assumed)
Protocol: (§1) The tested compounds were usually dissolved, tested and stored as 20 mM stock solutions in DMSO. Since sulfonyl acetic acid derivatives tend to decarboxylate under these conditions, these stock solutions were prepared, tested and stored as 20 mM DMSO stock solutions containing 100 mM trifluoroacetic acid (5 equivalents). Sulfonyl acetic acid derivatives are shelf stable as solid at rt for long time as reported by Griesbrecht et al. (Synlett 2010:374) or Faucher et al. (J. Med. Chem. 2004; 47:18).
(§2) LXR Gal4 Reporter Transient Transfection Assays
(§3) LXRα and LXRβ activity status was determined via detection of interaction with coactivator and corepressor proteins in mammalian two-hybrid experiments (M2H). For this, via transient transfection the full length (FL) proteins of LXRα (amino acids 1-447; NP005684; SEQ ID NO:1) or LXRβ-(amino acids 1-461; NP009052; SEQ ID NO:2) or the ligand-binding domains (LBD) of LXRα (amino acids 155-447 SEQ ID NO:3) or LXR (amino acids 156-461; SEQ ID NO:4) were expressed from pCMV-AD (Stratagene) as fusions to the transcriptional activation domain of NFkB. As cofactors, domains of either the steroid receptor coactivator 1 (SRC1; amino acids 552-887; SEQ ID NO:5) or of the corepressor NCoR (amino acids 1906-2312; NP006302; SEQ ID NO:6) were expressed as fusions to the DNA binding domain of the yeast transcription factor GAL4 (from pCMV-BD; Stratagene). Interaction was monitored via activation of a coexpressed Firefly Luciferase Reporter gene under control of a promoter containing repetitive GAL4 response elements (vector pFRLuc; Stratagene). Transfection efficiency was controlled via cotransfection of constitutively active pRL-CMV Renilla reniformis luciferase reporter (Promega). HEK293 cells were grown in minimum essential medium (MEM) with 2 mM L-glutamine and Earle's balanced salt solution supplemented with 8.3% fetal bovine serum, 0.1 mM non-essential amino acids, 1 mM sodium pyruvate, at 37° C. in 5% CO2. 3.5×10^4 cells/well were plated in 96-well cell culture plates in growth medium supplemented with 8.3% fetal bovine serum for 16-20 h to—90% confluency. For transfection, medium was taken off and LXR and cofactor expressing plasmids as well as the reporter plasmids are added in 30 μL OPTIMEM/well including polyethylene-imine (PEI) as vehicle. Typical amounts of plasmids transfected/well: pCMV-AD-LXR (5 ng), pCMV-BD-cofactor (5 ng), pFR-Luc (100 ng), pRL-CMV (0.5 ng). Compound stocks were prepared in DMSO, prediluted in MEM to a total volume of 120 μL, and added 4 h after addition of the transfection mixture (final vehicle concentration not exceeding 0.2%). Cells were incubated for additional 16 h, lysed for 10 min in 1×Passive Lysis Buffer (Promega) and Firefly and Renilla luciferase activities were measured sequentially in the same cell extract using buffers containing D-luciferine and coelenterazine, respectively. Measurements of luminescence were done in a BMG-luminometer.

[4] = molecular target: T3, LXRα ligand-binding domain (LBD) (Homo sapiens, UniProt Q13133); assay: LXR Gal4 reporter transient transfection assay, mammalian two-hybrid, LBD-M2H Gal4α; assay type: cell-based; settings: HEK293 cells; inverse agonist unless *
T3 construct: expressed in transfected cells; host or cells: HEK293
T3 sequence (Q13133 155-447): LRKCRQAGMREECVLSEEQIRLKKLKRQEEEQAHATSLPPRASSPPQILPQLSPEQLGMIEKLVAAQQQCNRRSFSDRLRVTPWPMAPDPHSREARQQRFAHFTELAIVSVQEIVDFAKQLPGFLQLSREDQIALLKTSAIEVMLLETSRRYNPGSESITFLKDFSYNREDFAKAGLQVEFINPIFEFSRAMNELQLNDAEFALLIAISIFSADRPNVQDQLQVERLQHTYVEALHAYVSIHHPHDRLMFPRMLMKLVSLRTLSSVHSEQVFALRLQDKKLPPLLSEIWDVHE
Protocol: as §1, §2, §3

[5] = Chemical stability of stock solutions and solids; assay type: physicochemical; settings: sodium salt
Protocol: To a solution of compound 7/9 (150 mg, 0.24 mmol) in MeOH (10 mL) and water (10 mL) was added NaOH ([…], 0.48 mmol) at rt. The mixture was stirred at rt overnight and concentrated. The residue was washed with H2O to give compound 14 as a white solid.
as §1

[6] = human liver microsome; cited from earlier work
[7] = rat liver microsome; cited from earlier work
LXR [8] = settings: literature; cited from earlier work
LXR [9] = system: T4, LXR; assay: Activity on LXR, assay not specified; settings: confirmed by applicant
T4 construct: rows headed: activity on LXR; other: confirmed by applicant; LXRα (amino acids 1-447); NP005684; NP009052
Text: The following compounds from this application, in particular, are further described in some publications, mainly from the same group of inventors/authors: SR9238 is described as a liver-selective LXR inverse agonist that suppresses hepatic steatosis upon parenteral administration (Griffett et al., ACS Chem. Biol. 2013; 8:559). […] This compound then has systemic exposure. In addition, it was described, that SR9238 suppresses fibrosis in a model of NASH again after parenteral administration (Griffett et al., Mol. Metab. 2015; 4:35). With a related SR9243 the effects on aerobic glycolysis (Warburg effect) and lipogenesis were described (Flaveny et al., Cancer Cell 2015; 28:42) and the NASH-supressing data obtained with SR9238 was confirmed by Huang et al. (BioMed Res. Int. 2018; 8071093) using SR9243.

[10] = single oral dose 20 mg/kg, time point 4 h
[11] = single oral dose 20 mg/kg, time point 12 h
[12] = single oral dose 20 mg/kg, time point 4 h, below LLOQ

- EC50 [1]: 1000 to 10000 nM
- Kp at 4 h ([2]; male, C57/bl6/J, mouse, liver/blood, single oral dose 20 mg/kg, time point 4 h, read-out: liver/blood ratio): 51
- Kp at 12 h ([2]; male, C57/bl6/J, mouse, liver/blood, single oral dose 20 mg/kg, time point 12 h, read-out: liver/blood ratio): 54
- blood/plasma exposure [2, 10]: 0.83 µM
- liver exposure [2, 10]: 42 µM
- blood/plasma exposure [2, 11]: 0.06 µM
- liver exposure [2, 11]: 3.2 µM
- EC50 [3]: 100 to 1000 nM
- EC50 [4]: 1000 to 10000 nM
Structure (SMILES): Cc1cc(C)c(CN(Cc2ccc(-c3cccc(S(=O)(=O)CC(=O)O)c3)cc2)Cc2ccc(C(F)(F)F)o2)c(C)c1 [Example 1, 2-((4′-((((5-(Trifluoromethyl)furan-2-yl)methyl)(2,4,6-trimethylbenzyl)amino)methyl)-1,1′-biphenyl-3-yl)sulfonyl)acetic acid]

- EC50 [1]: 1000 to 10000 nM
- liver exposure [2, 11]: 3.45 µM
- EC50 [3]: 100 to 1000 nM
- EC50 [4]: 100 to 1000 nM
Structure (SMILES): Cc1cc(C)c(C(=O)N(Cc2ccc(-c3cccc(S(=O)(=O)CC(=O)O)c3)cc2)Cc2ccc(C(F)(F)F)o2)c(C)c1 [Example 4, 2-((4′-((2,4,6-Trimethyl-N-((5-(trifluoromethyl)furan-2-yl)methyl)benzamido)methyl)-1,1′-biphenyl-3-yl)sulfonyl)acetic acid]

- EC50 [1]: 1000 to 10000 nM
- EC50 [3]: < 100 nM
- EC50 [4]: 1000 to 10000 nM
Structure (SMILES): COc1cc(-c2ccc(CO)c(C(C)(C)C(=O)[O-])c2)ccc1CN(Cc1ccc(C(F)(F)F)o1)Cc1c(C)ccc2ccccc12.[Na+] [Example 14]
- stability upon standing [5]: tends to cyclisize back to lacton 7/9 upon standing

- blood/plasma exposure [2, 12]: (14.4 ng/mL)
- liver exposure [2, 12]: (9.6 ng/mL)
Structure (SMILES): Cc1cc(C)c(S(=O)(=O)N(Cc2ccc(-c3cccc(S(C)(=O)=O)c3)cc2)Cc2ccc(C(F)(F)F)o2)c(C)c1 [GSK2033, reference compound]
- clearance ClInt [6]: > 1.0 mL/min/mg prot
- oral bioavailability ([2]; single dose oral administration, 20 mg/kg): not orally bioavailable and hepatoselective
- clearance ClInt [7]: > 1.0 mL/min/mg prot

Structure (SMILES): Cc1cc(C)c(S(=O)(=O)N(Cc2ccc(-c3cccc(S(C)(=O)=O)c3)cc2)Cc2ccc(C(=O)O)o2)c(C)c1 [SR10389]
- LXR activity (LXR [8]): LXR inactive
- activity on LXR (LXR [9]): inactive on LXR
